Assay [1] addresses T1, Proton Pump (H^+ /K^+ ATPase) (Oryctolagus cuniculus, UniProt P27112).
T1 construct: The microsomes thus obtained were used as an enzyme source of the in vitro enzyme reaction study of proton pump; from tissue; host or cells: rabbit stomach, mucosal scrapings, microsomes (180,000 g pellet)
In words: Inhibition of Proton Pump (H+/K+ ATPase) Activity, in vitro enzyme reaction (Experiment 1). It counts as biochemical, New Zealand white rabbit. Particulars: for Effect ratio: IC50 of Omeprazole / IC50 of test compound; for IC50: K+-stimulated H+/K+ ATPase activity, rabbit gastric microsomes, pH 7.2, 37° C., 15 min prereaction, 30 min reaction, read-out: IC50 of test compound, inhibition (50%) of the proton pump activity. On the procedure:
A New Zealand white rabbit was killed by blowing its head and the stomach was taken out. The contents of the stomach were removed and the stomach walls were washed with was saline. The inner wall of the stomach was scratched out with a slide glass and the cells thus obtained were homogenized in 0.25M sucrose buffer by means of a Teflon-glass homogenizer. The homogenous solution was centrifuged at 10,000 g for 10 minutes and the supernatant was further centrifuged at 20,000 g for 20 minutes. The supernatant thus obtained was centrifuged at an ultra-high speed of 180,000 g for 1 hour. The pellets precipitated were collected by discarding the supernatant and suspended in 50 mM Tris-HCl buffer having pH 7.2. The suspension was dialyzed twice with the same buffer(of 1,000 times volume) for 3 hours and stored into liquid nitrogen.
The above centrifugation and dialysis were carried out at 4° C. The microsomes thus obtained were used as an enzyme source of the in vitro enzyme reaction study of proton pump.
The inhibitory effects of proton pump activity by the compounds of the present invention were measured by the in vitro enzyme reaction study. The proton pump activity stimulated by Mg^++ was used as a negative comparative group, and the activity stimulated by Mg^++ and K^+ was used as a positive comparative group. The comparative compound was omeprazole.
Test tubes were divided into 4 groups: Group 1 as negative comparative group(n=3), Group 2 as positive comparative group(n=3), Group 3(n=5) to be administered with the compound of the present invention and Group 4(n=5) to be administered with the comparative compound. The inhibitory effects of proton pump activity of Groups 3 and 4 were measured by employing the compound prepared in Example 34 and omeprazole, respectively, each of which was dissolved in dimethylsulfoxide at 5 different concentrations.
To each of Groups 1, 2, 3 and 4, were added 0.1 ml of magnesium chloride(40 mM) dissolved in 50 mM Tris-HCl buffer (pH 7.2) and […] of the enzyme source prepared in Experiment 1-1. Then, 0.1 ml of potassium chloride(500 mM) and 0.1 ml of ammonium chloride(100 mM) dissolved in 50 mM Tris-HCl buffer(pH 7.2) were added to all groups except for Group 1.
0.1 ml of dimethylsulfoxide was added to each of Groups 1 and 2; and to Group 3 was added 0.01 ml of the solution in which the compound prepared in Example 34 was dissolved in dimethylsulfoxide at 5 different concentrations. To Group 4, 0.01 ml of the solution prepared by dissolving omprazole in dimethylsulfoxide at 5 different concentrations(37.6, 21.4, 12.2, 7.0 and 4.0 μM) was added. 50 mM Tris-HCl buffer was added thereto so as to make the total volume 0.4 ml.
Thereafter, the test tubes of each Group were placed at 37° C. for 15 minutes for the prereaction. 0.1 ml of ATP solution(33.3 mM), which was prepared by adding Tris-ATP 50 mM to Tris-HCl buffer having pH 7.2, was added until the reaction volume became 0.5 ml. The final concentrations of MgCl2, KCl, NH4 Cl, ATP, enzyme and Tris-HCl were 8 mM, 100 mM, 20 mM, 6.7 mM, 100μg/ml and 50 mM, respectively. After the reaction was carried out at 37° C. for 30 minutes, 25% cold trichloroacetic acid was added to terminate the enzyme reaction. The released inorganic phosphate was measured by an automatic analyzer(SBA 300, Gilford).
The difference between Group 1 and Group 2 represents the proton pump activity activated by K^+ only. The inhibition percentages of Groups 3 and 4 were calculated from Litchfield-wilcoxon equation[see J. Pharmacol. Exptl. Ther. 96, 99(1949)]. The concentrations of the test compounds which inhibit 50% of the proton pump activity are represented as IC50 in Table 1.

In assay [2] the test system is gastric secretion. Briefly: Inhibition of Gastric Secretion, pylorus-ligated rats (Experiment 2). Type of assay: in vivo, Sprague-Dawley rats. On the procedure: In accordance with the method disclosed in Shay, H., et al., Gastroenterology 5, 43-61(1945), Experiment 2 was carried out.
Sprague-Dawley rats having a body weight of 170±10 g were divided into 3 groups(n=5) and deprived of food for 24 hours before the experiment with free access to water. Under ether anesthesia, the abdomen was incised, and the pylorus was ligated. As a comparative group, Group 1 was administered intraduodenally in a volume of 0.5 ml/200 g of 30% aqueous polyethylene glycol 400 solution. Groups 2 and 3 were administered intraduodenally with the compound of Example 34 and omeprazole, respectively, each of which was suspended in 30% aqueous polyethylene glycol 400 solution at a concentration of 20 mg/kg. After closing the abdominal cavity, the rats were placed for 5 hours and then killed by cervical dislocation. The stomach was extracted to obtain gastric juice.
The gastric juice was centrifuged at 1,000 g to remove precipitates. The amount and acidity of the gastric juice were measured. Relative volumes, relative acid concentrations and relative acid outputs of the test compounds were calculated from equations(I), (II) and (III) and the results are shown in Table 2.
(I) = the average amount of gastric juice of Group 1 - the
average amount of gastric juice of Group 2)/(the average
amount of gastric juice of Group 1 - the average amount
of gastric juice of Group 3)
Relative acid concentration
(II) = (the average acidity of Group 1 - the average
acidity of Group 2)/(the average acidity of Group 1 - the average
(III) = (the total amount of acid output of Group 1 - the
total amount of acid output of Group 2)/(the total amount of acid
output of Group 1 - the total amount of acid output of Group

Where [3] appears, read: relative to omeprazole (equation III), 20 mg/kg intraduodenally, pylorus-ligated rats, 5 hours.

Where a name gives a salt, the structure may show the parent alone.

T1 sequence (P27112 whole entry): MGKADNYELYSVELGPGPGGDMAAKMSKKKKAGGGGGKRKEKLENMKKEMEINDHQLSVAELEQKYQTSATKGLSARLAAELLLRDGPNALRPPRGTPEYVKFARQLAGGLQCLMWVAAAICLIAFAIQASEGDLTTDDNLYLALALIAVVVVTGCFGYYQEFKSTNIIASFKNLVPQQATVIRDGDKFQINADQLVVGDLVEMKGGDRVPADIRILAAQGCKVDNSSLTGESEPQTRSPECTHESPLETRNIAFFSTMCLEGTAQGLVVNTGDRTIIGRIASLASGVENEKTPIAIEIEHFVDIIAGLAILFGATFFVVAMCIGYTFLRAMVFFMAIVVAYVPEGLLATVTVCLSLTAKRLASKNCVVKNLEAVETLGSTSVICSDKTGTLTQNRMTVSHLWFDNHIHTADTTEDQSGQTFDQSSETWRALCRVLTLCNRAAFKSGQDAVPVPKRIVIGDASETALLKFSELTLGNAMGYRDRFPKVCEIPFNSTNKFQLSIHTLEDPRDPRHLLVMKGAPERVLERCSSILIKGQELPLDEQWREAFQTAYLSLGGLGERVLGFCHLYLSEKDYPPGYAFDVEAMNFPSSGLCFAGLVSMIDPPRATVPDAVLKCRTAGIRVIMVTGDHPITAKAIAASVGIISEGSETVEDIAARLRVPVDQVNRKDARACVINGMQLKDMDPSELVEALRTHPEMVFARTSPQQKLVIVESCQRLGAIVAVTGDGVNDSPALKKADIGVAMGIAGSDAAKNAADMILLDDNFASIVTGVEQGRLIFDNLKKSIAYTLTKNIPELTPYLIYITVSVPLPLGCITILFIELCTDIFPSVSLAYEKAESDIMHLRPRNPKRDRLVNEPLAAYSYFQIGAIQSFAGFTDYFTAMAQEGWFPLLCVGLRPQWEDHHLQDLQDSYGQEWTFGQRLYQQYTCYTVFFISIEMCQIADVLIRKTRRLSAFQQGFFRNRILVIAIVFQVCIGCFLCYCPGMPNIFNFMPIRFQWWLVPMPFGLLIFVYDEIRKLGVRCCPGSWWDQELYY
T1 sequence (P18597 whole entry partner): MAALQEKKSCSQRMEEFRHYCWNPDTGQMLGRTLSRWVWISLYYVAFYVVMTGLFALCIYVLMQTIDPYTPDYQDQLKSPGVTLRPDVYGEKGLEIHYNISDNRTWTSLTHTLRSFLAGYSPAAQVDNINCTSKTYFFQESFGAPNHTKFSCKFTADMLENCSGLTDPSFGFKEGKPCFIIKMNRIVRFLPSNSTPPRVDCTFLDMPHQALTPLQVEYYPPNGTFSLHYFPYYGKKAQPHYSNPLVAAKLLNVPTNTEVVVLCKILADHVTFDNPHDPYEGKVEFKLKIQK

Consider `CSCOc1cccc2c(N3CCc4ccccc4C3C)nc(Nc3ccc(F)cc3C)nc12` (stereo not drawn) [Example 39, 2-(4-Fluoro-2-Methylphenyl-Amino-8-(Methylthiomethyloxy)-4-(1-Methyl-1,2,3,4-Tetrahydroisoquinoline-2-Yl)Quinazoline Hydrochloride], for which, in assay [1], the Effect ratio was 0.70 and the IC50 was found to be 4 µM. Moreover, the “Relative Acid Output” value in assay [2] (setting [3]) is listed as 0.57.
`Fc1ccc(Nc2nc(N3CCc4ccccc4C3)c3ccccc3n2)cc1` [Example 23, 2-(4-Fluorophenylamino)-4-(1,2,3,4-Tetrahydroisoquinoline-2-Yl)QuinazolineHydrochloride]: in assay [1], the Effect ratio turned out to be 4.30 and the IC50 was found to be 2 µM. Further, the “Relative Acid Output” value in assay [2] (setting [3]) is 0.44.
`COc1cccc2c(N3CCc4ccccc4C3)nc(Nc3ccc(F)cc3)nc12.Cl` [Example 30, 8-Methoxy-2-(4-Fluorophenyl-Amino)-4-(1,2,3,4-Tetrahydroisoquinoline-2-Yl)Quinazoline Hydrochloride]: in assay [1], the Effect ratio stood at 3.27 and the IC50 amounted to 2.2 µM. The “Relative Acid Output” value in assay [2] (setting [3]) is reported as 0.76.
On the same counts, the results for `COc1cccc2c(N3CCc4ccccc4C3(C)C)nc(Nc3ccc(F)cc3C)nc12` [Example 51, 2-(4-Fluoro-2-Methylphenyl-1-Amino)-8-Methoxy-4-(1,1-Dimethyl-1,2,3,4-Tetrahydroisoquinoline-2-Yl)Quinazoline Hydrochloride] are 1.21, 6.12 µM and 0.82.
Take `COc1cccc2c(N3CCc4cccc5c4C3CC5)nc(Nc3ccc(F)cc3C)nc12.Cl` (stereo not drawn) [Example 59, 8-Methoxy-2-(4-Fluoro-2-Methyl-Phenylamino)-4-(1,8-Ethano-1,2,3,4-Tetrahydroisoquinoline-2-Yl)Quinazoline Hydrochloride]: in assay [1], the Effect ratio is listed as 1.77 and the IC50 came to 4.8 µM. Besides, the “Relative Acid Output” value in assay [2] (setting [3]) was found to be 0.83.
As to `CCC1c2ccccc2CCN1c1nc(Nc2ccc(F)cc2C)nc2c(OC)cccc12.Cl` (stereo not drawn) [Example 46, 8-Methoxy-2-(2-Methyl-4-Fluoro-Phenylamino)-4-(1-Ethyl-1,2,3,4-Tetrahydroisoquinoline-2-Yl)Quinazoline Hydrochloride], in assay [1], the Effect ratio is 0.68 and the IC50 is roughly 6 µM. Besides, the “Relative Acid Output” value in assay [2] (setting [3]) stood at 0.11.
Take `Cl.c1ccc(Nc2nc(N3CCc4ccccc4C3)c3ccccc3n2)cc1` [Example 18, 2-(Phenylamino)-4-(1,2,3,4-Tetrahydroisoquinoline-2-Yl)Quinazoline Hydrochloride]: in assay [1], the Effect ratio is listed as 61.67 and the IC50 was found to be 0.6 µM. The “Relative Acid Output” value in assay [2] (setting [3]) came to 0.29.
Take `Cc1ccccc1Nc1nc(N2CCc3ccccc3C2)c2ccccc2n1` [Example 21, 2-(2-Methylphenylamino)-4-(1,2,3,4-Tetrahydroisoquinoline-2-Yl)QuinazolineHydrochloride]: in assay [1], the Effect ratio is 6.17 and the IC50 was found to be 1.2 µM. Further, the “Relative Acid Output” value in assay [2] (setting [3]) is recorded as 0.38.
With `CN(c1ccccc1)c1nc(N2CCc3ccccc3C2)c2ccccc2n1` [Example 19, 2-(N-Methylphenylamino)-4-(1,2,3,4-Tetrahydroisoquinoline-2-Yl)QuinazolineHydrochloride], in assay [1], the Effect ratio stood at 1.83 and the IC50 came out at 5.2 µM. In addition, the “Relative Acid Output” value in assay [2] (setting [3]) worked out at 0.68.
`COc1cccc2c(N3CCc4ccccc4C3CF)nc(Nc3ccc(F)cc3)nc12.Cl` (stereo not drawn) [Example 43, 2-(4-Fluorophenylamino)-8-Methoxy-4-(1-Fluoromethyl-1,2,3,4-Tetrahydroisoquinoline-2-Yl)Quinazoline Hydrochloride]: in assay [1], the Effect ratio is less than 0.97 and the IC50 is greater than 12.5 µM. The “Relative Acid Output” value in assay [2] (setting [3]) is given as 0.76.
For `COc1cccc2c(N3CCc4ccccc4C3C)nc(N(C)c3ccccc3)nc12.Cl` (stereo not drawn) [Example 40, 8-Methoxy-2-(N-Methylphenyl-Amino)-4-(1-Methyl-1,2,3,4-Tetrahydroisoquinoline-2-Yl) Quinazoline Hydrochloride], in assay [1], the Effect ratio worked out at 8.15 and the IC50 came to 1.3 µM. In addition, the “Relative Acid Output” value in assay [2] (setting [3]) is recorded as 0.82.
As to `CC1c2ccccc2CCN1c1nc(Nc2ccc(F)cc2)nc2ccccc12.Cl` (stereo not drawn) [Example 25, 2-(4-Fluorophenylamino)-4-(1-Methyl-1,2,3,4-Tetrahydroisoquinoline-2-Yl)Quinazoline Hydrochloride], in assay [1], the Effect ratio came out at 5.88 and the IC50 stood at 2.7 µM. Also, the “Relative Acid Output” value in assay [2] (setting [3]) is given as 0.50.
Regarding `COc1cccc2c(N3CCc4cc(C)ccc4C3C)nc(Nc3ccc(F)cc3)nc12.Cl` (stereo not drawn) [Example 54, 2-(4-Fluorophenylamino)-8-Methoxy-4-(1,6-Dimethyl-1,2,3,4-Tetrahydroisoquinoline-2-Yl)Quinazoline Hydrochloride], in assay [1], the Effect ratio was ~ 0.64 and the IC50 was roughly 12.5 µM. Besides, in assay [2] (setting [3]), the “Relative Acid Output” value is 0.82.
With `COc1cccc2c(N3CCc4ccccc4[C@@H]3C)nc(Nc3ccc(F)cc3C)nc12.Cl` [Example 36, (S)-8-Methoxy-2-(4Fluoro-2-Methylphenylamino)-4-(1-Methyl-1,2,3,4-Tetrahydroisoquinoline-2-Yl)Quinazoline Hydrochloride], in assay [1], the Effect ratio is listed as 1.28 and the IC50 is 4 µM. Moreover, the “Relative Acid Output” value in assay [2] (setting [3]) was 0.67.
In the case of `COc1cccc2c(N3CCc4ccccc4C3(C)C)nc(Nc3ccc(F)cc3)nc12.Cl` [Example 50, 2-(4-Fluorophenylamino)-8-Methoxy-4-(1,1-Dimethyl-1,2,3,4-Tetrahydroisoquinoline-2-Yl)Quinazoline Hydrochloride], in assay [1], the Effect ratio is 1.22 and the IC50 was 6.05 µM. Further, in assay [2] (setting [3]), the “Relative Acid Output” value is given as 0.82.
`CCC1c2ccccc2CCN1c1nc(Nc2ccc(F)cc2)nc2c(OC)cccc12.Cl` (stereo not drawn) [Example 45, 8-Methoxy-2-(4-Fluorophenyl-Amino)-4-(1-Ethyl-1,2,3,4-Tetrahydroisoquinoline-2-Yl) Quinazoline Hydrochloride]: in assay [1], the Effect ratio is 0.46 and the half-inhibitory concentration (IC50) stood at 8.9 µM. Moreover, the “Relative Acid Output” value in assay [2] (intraduodenal, 20 mg/kg, 5 h) is reported as -0.06.

The term IC50 denotes the midpoint of a concentration-inhibition curve.
